From patent US12391679B2, “Benzamide-substituted bicyclic imidazo- and pyrazolo-fused -pyridine, -pyrimide, and -pyridazine compounds for treatment of inflammatory diseases” (ONCO3R Therapeutics BV, priority 2019, dated 2025)

How the values were obtained:
SIK1 = biological target: T1, SIK1 (Homo sapiens, UniProt P57059); experiment: ADP-Glo kinase assay, SIK1; type: biochemical
T1 construct: purchased Carna Biosciences 02-131
How it was run: (§1)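 Each SIK isoform is incubated with substrate and ATP for 2 h at room temperature, after which residual ATP is depleted and the ADP formed is quantified by luminescence.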

SIK2 = biological target: T2, SIK2 (Homo sapiens, UniProt Q9H0K1); experiment: ADP-Glo kinase assay, SIK2; type: biochemical
T2 construct: purchased ThermoFisher Scientific PV4792
T2 sequence (Q9H0K1 whole entry): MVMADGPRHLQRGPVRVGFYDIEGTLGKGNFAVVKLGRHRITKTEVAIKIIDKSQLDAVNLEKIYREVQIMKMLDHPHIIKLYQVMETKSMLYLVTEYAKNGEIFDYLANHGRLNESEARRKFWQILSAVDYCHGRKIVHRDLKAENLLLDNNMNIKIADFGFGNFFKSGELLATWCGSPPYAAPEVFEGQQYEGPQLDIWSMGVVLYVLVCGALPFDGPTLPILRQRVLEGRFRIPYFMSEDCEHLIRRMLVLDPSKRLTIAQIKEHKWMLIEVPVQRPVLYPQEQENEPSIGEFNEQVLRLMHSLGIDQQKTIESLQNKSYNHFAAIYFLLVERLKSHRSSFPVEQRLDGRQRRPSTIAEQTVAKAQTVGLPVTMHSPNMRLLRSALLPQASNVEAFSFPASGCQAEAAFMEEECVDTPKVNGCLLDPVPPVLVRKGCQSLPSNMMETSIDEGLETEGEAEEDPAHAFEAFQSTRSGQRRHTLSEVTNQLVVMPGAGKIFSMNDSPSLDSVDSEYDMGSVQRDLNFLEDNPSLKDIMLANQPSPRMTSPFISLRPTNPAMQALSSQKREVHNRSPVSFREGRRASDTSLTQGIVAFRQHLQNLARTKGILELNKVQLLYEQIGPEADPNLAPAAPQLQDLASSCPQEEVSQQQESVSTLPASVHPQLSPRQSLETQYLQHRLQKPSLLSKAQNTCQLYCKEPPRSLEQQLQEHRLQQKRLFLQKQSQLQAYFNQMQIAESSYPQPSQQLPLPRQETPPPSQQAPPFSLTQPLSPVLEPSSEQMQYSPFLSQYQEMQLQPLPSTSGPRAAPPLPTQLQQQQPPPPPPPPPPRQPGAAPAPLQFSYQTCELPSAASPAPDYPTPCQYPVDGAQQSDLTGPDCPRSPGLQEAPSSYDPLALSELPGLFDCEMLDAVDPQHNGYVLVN
How it was run: as §1

SIK3 = biological target: T3, SIK3 (Homo sapiens, UniProt Q9Y2K2); experiment: ADP-Glo kinase assay, SIK3; type: biochemical
T3 construct: purchased SignalChem S12-11G-100
T3 sequence (Q9Y2K2 59-365 limits assumed): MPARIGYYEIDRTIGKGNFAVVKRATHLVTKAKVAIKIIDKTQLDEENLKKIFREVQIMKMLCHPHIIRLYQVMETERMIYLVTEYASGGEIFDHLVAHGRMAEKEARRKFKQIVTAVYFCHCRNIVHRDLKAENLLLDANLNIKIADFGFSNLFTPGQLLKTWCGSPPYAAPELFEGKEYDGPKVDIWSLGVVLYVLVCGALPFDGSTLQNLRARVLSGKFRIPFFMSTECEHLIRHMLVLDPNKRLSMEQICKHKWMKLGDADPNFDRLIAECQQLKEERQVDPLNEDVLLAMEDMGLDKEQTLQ
How it was run: as §1

[1] = test system: LPS-induced TNFα in monocytes; experiment: Monocytes assay: LPS-triggered TNFα (ELISA); type: cell-based, human; details: Homo sapiens, Monocyte, LPS-triggered TNFα inhibition
Procedure: (§2) This assay evaluates illustrative compounds of the invention for their inhibition of LPS-induced TNFα and LPS triggered IL-10 secretion in monocytes.
(§3) PBMCs are isolated from human blood samples (buffycoats). The buffy coat is aseptically transferred into a 50 mL Falcon tube, and diluted 1/2 in PBS. Falcon tubes are filled with 20 mL Lymphoprep™, on top of which 25 mL of the buffy coat is carefully added, tubes are centrifuged for 35 min at 400 g in temperature controlled centrifuge, without brake, at 25° C. PBMCs are aspirated from the white interface layer between sample and Lymphoprep™. PBMCs are washed five times in PBS.
(§4) PBMCs are centrifuged at 300×g for 10 min and resuspended at a density of 1.0*10^7 cells/80 μL Miltenyi buffer (PBS, pH 7.4, 1% FBS, 2 mM EDTA).
(§5) Starting from this point of the protocol all steps are performed on ice. 20 μL of CD14+ micro-beads are added per 1.0*10^7 cells, the tube is mixed and incubated for 15 min in the fridge at 4° C. Cell suspension volume is adjusted to total volume of 100 mL using Miltenyi buffer, mixed gently and subsequently centrifuged for 10 min at 300×g. Supernatant is discarded and cell pellet is resuspended in 12 mL of Miltenyi buffer.
(§6) Four LS columns are placed in the MACS Separator (magnet) from Miltenyi Biotec, and are prewet by rinsing with 3 mL of MACS buffer per column. Three mL of cell suspension is added onto the column (max 1*10^8 of labelled cells/column), and columns are subsequently washed 3 times with 3 mL of Miltenyi buffer.
(§7) The columns are removed from the magnets, and 5 mL of Miltenyi buffer are added to the column to flush out the CD14+ fraction by pushing the plunger into the column. The flushed fractions are collected in a fresh 50 mL Falcon and volume is adjusted to 30 mL using Miltenyi buffer, cells are centrifuged for 10 min at 300×g. The obtained cell pellet is resuspended in 10 mL RPMI w/o FBS, and cell density is determined using a hematologic analyser (Sysmex XS-500i).
(§8) A compound dilution plate is made in 100% DMSO by 3-fold dilution of 10 mM stock solution. An intermediate dilution plate (10× final concentration) is made by diluting the compound dilution plate 50-fold in RPMI medium.
(§9) 10 μL of the 10× final concentration compound is added to the cells and incubated for 1 h at 37° C. before addition of trigger. No trigger conditions/trigger conditions are spiked with equal final DMSO concentrations of 0.2% DMSO. 10 μL of 10×LPS (final conc. 200 ng/mL) solution are added to all wells except for the ‘no trigger wells’ where 10 μL medium is added. Supernatant is collected after 4 h of LPS triggering.
The plate is then washed once with PBST (PBS+0.05% Tween20) and once with PBS followed by the addition of 100 μL of blocking buffer (1% Bovine Serum Albumin (BSA)-5% Sucrose) and plates are sealed and incubated for at least 4 h at RT. After washing the plate once with PBST and once with PBS, […]. Plates are washed twice with PBST, and once with PBS, after which 35 μL of the detection antibody is added (final concentration 0.25 μg/mL diluted in dilution buffer) and plates are incubated for at least 2 h at RT. Plates are washed twice with PBST, and once with PBS, whereafter 35 μL of Strep-HRP conjugate (0.5 μg/mL final concentration diluted in dilution buffer) is added. Plates are incubated in the dark, at RT for at least 45 min but no longer than 1 h. Plates are washed twice with PBST, and once with PBS. Thereafter, 50 μL of luminol substrate is added to each well (prepared according to manufacturer's instructions), and incubated for 5 min at RT protected from light.
To measure the inhibition of LPS induced TNFα, percentage inhibition (PIN) values are calculated for all concentrations tested, compared to controls.

[2] = test system: LPS triggered IL-10 secretion in monocytes; experiment: Monocytes assay: LPS-triggered IL-10 (ELISA); type: cell-based, human; details: Homo sapiens, Monocyte, LPS-triggered IL-10 induction, median maximal fold change vs LPS only, read-out: IL-10 FCmax median
Procedure: as §2, §3, §4, §5, §6, §7, §8, §9
A Lumitrac 600 Greiner 384-well plate is coated with 40 μL of capture antibody (final concentration of 1 μg/mL in 1×PBS) and stored overnight at 4° C. The next day the plate is washed three times with PBST (PBS+0.05% Tween20) and once with PBS followed by the addition of 100 μL of blocking buffer (1% BSA-5% Sucrose) and plates are sealed and incubated for at least 4 h at RT. After washing the plate once with PBST and once with PBS, 40 μL of standard or sample are added (IL-10 standard curve is prepared using a 1/2 serial dilution starting from 2000 pg/mL; dilutions are made in dilution buffer (PBS+1% BSA)). […] Plates are washed twice with PBST, and once with PBS, whereafter 35 μL of Strep-HRP conjugate (0.5 μg/mL final concentration diluted in dilution buffer) is added. Plates are incubated in the dark, at RT for at least 45 min but no longer than 1 h. Plates are washed twice with PBST, and once with PBS. Thereafter, 50 μL of luminol substrate is added to each well (prepared according to manufacturer's instructions), and incubated for 5 min at RT protected from light.
To quantify these increases, fold changes (FC) compared to ‘LPS only’ are calculated for each concentration tested and the maximal FC is calculated (IL-10 FCmax): […]

[3] = test system: LPS-induced TNFα in monocyte-derived macrophages; experiment: MdM assay: LPS-triggered TNFα (ELISA); type: cell-based, human; details: Macrophage; human MdM; LPS 200 ng/mL; supernatant after 20 h; inhibition of TNFα; read-out: TNFα EC50
Procedure: This assay evaluates illustrative compounds of the invention for their inhibition of LPS-induced TNFα and LPS triggered IL-10 secretion in monocyte-derived macrophages. PBMCs are isolated from human blood samples (buffycoats). The buffy coat is aseptically transferred into a 50 mL Falcon tube, and diluted 1/2 in PBS. Falcon tubes are filled with 20 mL LymphoprepTM, on top of which 25 mL of the buffy coat is carefully added, tubes are centrifuged for 35 min at 400 g in temperature controlled centrifuge, without brake, at 25° C. PBMCs are aspirated from the white interface layer between sample and LymphoprepTM. PBMCs are washed five times in PBS. […] PBMCs are centrifuged at 300×g for 10 min and resuspended at a density of 1.0*10^7 cells/80 μL Miltenyi buffer (PBS, pH 7.4, 1% FBS, 2 mM EDTA). Starting from this point of the protocol all steps are performed on ice. 20 μL of CD14+ micro-beads are added per 1.0*10^7 cells, the tube is mixed and incubated for 15 min in the fridge at 4° C. Cell suspension volume is adjusted to total volume of 100 mL using Miltenyi buffer, mixed gently and subsequently centrifuged for 10 min at 300×g. Supernatant is discarded and cell pellet is resuspended in 12 mL of Miltenyi buffer. Four LS columns are placed in the MACS Separator (magnet) from Miltenyi Biotec, and are prewet by rinsing with 3 mL of MACS buffer per column. Three mL of cell suspension is added onto the column (max 1*10^8 of labelled cells/column), and columns are subsequently washed 3 times with 3 mL of Miltenyi buffer. The columns are removed from the magnets, and 5 mL of Miltenyi buffer are added to the column to flush out the CD14+ fraction by pushing the plunger into the column. The flushed fractions are collected in a fresh 50 mL Falcon and volume is adjusted to 30 mL using Miltenyi buffer, cells are centrifuged for 10 min at 300×g. The obtained cell pellet is resuspended in 10 mL RPMI w/o FBS, and cell density is determined using a hematologic analyser (Sysmex XS-500i). […] On day 10, MdMs are triggered and compound is added. A compound dilution plate is made in 100% DMSO by 3-fold dilution of 10 mM stock solution. An intermediate dilution plate (10× final concentration) is made by diluting the compound dilution plate […] in RPMI medium. Medium is carefully removed from cell plates using multichannel pipette, and replaced by 80 μL fresh medium. 10 μL of the 10× final concentration compound is added to the cells and incubated for 1 hour at 37° C. before addition of trigger. No trigger conditions/trigger conditions are spiked with equal final DMSO concentrations of 0.2% DMSO. 10 μL of 10×LPS (final conc. 200 ng/mL) solution are added to all wells except for the 'no trigger wells' where 10 μL medium is added. Supernatant is collected after 2 h (IL-10 determination) and after 20 h (TNFα determination) of LPS triggering. […] The plate is then washed once with PBST (PBS+0.05% Tween20) and once with PBS followed by the addition of 100 μL of blocking buffer (1% Bovine Serum Albumin (BSA) -5% Sucrose) and plates are sealed and incubated for at least 4 h at RT. After washing the plate once with PBST and once with PBS, 40 μL of standard or sample are added (TNFα standard curve is prepared using a 1/2 serial dilution starting from 16000 pg/mL; dilutions are made in dilution buffer (PBS+1% BSA)). Plates are washed twice with PBST, and once with PBS, after which 35 μL of the detection antibody is added (final concentration 0.25 μg/mL diluted in dilution buffer) and plates are incubated for at least 2 h at RT. Plates are washed twice with PBST, and once with PBS, where after 35 μL of Strep-HRP conjugate (0.5 μg/mL final concentration diluted in dilution buffer) is added. […] Plates are washed twice with PBST, and once with PBS. Thereafter, 50 μL of luminol substrate is added to each well (prepared according to manufacturer's instructions), and incubated for 5 min at RT protected from light.

T1 sequence (P57059 whole entry): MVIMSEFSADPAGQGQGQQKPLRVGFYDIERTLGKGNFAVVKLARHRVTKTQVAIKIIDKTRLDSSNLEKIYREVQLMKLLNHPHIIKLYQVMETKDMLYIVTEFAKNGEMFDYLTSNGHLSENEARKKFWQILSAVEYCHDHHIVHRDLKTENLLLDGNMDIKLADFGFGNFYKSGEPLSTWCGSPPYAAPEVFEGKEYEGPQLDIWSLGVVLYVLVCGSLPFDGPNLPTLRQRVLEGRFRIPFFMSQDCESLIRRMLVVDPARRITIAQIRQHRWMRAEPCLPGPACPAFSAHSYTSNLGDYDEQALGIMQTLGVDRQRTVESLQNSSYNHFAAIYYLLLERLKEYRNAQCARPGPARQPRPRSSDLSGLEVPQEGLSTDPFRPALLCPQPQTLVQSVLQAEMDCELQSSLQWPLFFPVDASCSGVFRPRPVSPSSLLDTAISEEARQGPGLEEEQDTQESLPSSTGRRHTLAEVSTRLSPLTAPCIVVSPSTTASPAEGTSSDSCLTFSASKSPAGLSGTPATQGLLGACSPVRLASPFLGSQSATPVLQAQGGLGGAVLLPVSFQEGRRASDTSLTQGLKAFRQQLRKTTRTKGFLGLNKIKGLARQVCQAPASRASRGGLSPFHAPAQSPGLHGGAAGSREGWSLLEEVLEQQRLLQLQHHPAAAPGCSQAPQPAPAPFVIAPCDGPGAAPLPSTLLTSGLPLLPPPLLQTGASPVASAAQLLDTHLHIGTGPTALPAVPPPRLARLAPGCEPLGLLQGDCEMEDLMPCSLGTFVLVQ

For `COc1cc(-c2cnc3cc(C(C)(C)C#N)ccn23)cc(OC(F)F)c1C(=O)N[C@@H]1C[C@H]1F` (racemic) [Cpd 225, 4-[7-(1-cyano-1-methyl-ethyl)imidazo[1,2-a]pyridin-3-yl]-2-(difluoromethoxy)-N-(2-fluorocyclopropyl)-6-methoxy-benzamide], the IC50 (SIK1) was > 500 nM, the IC50 (SIK2) was > 500 nM and the IC50 (SIK3) was 0.01 to 10 nM. For the same compound, the EC50 [1] was 100 to 1000 nM and the maximal fold induction [2] was < 1.5.

In the case of `COc1cc(-c2cnn3cc(C(C)(C)C#N)ccc23)cc(OC(F)F)c1C(=O)N[C@@H]1C[C@@H]1F` (racemic) [Cpd 233, 4-[6-(1-cyano-1-methyl-ethyl)pyrazolo[1,5-a]pyridin-3-yl]-2-(difluoromethoxy)-N-(2-fluorocyclopropyl)-6-methoxy-benzamide], the EC50 [1] is reported as 100 to 1000 nM and the maximal fold induction [2] is reported as < 1.5.

In the case of `COc1cc(-c2cnc3cc(C(C)(C)OC)ccn23)cc(OC(F)F)c1C(=O)NC1CC1` [Cpd 120, N-cyclopropyl-2-(difluoromethoxy)-6-methoxy-4-[7-(1-methoxy-1-methyl-ethyl)imidazo[1,2-a]pyridin-3-yl]benzamide], the IC50 (SIK1) is reported as > 500 nM, the IC50 (SIK2) is reported as > 500 nM and the IC50 (SIK3) is reported as 0.01 to 10 nM. It also gave an EC50 [3] of 100 to 1000 nM.

`COc1cc(-c2cnc3cc(C(C)(C)F)ccn23)cc(OC(F)F)c1C(=O)NC1CC1` [Cpd 133, N-cyclopropyl-2-(difluoromethoxy)-4-[7-(1-fluoro-1-methyl-ethyl)imidazo[1,2-a]pyridin-3-yl]-6-methoxy-benzamide] gave an IC50 (SIK1) of 100 to 500 nM, an IC50 (SIK2) of 100 to 500 nM and an IC50 (SIK3) of 10 to 100 nM. For the same compound, the EC50 [1] was 100 to 1000 nM and the maximal fold induction [2] was 1.5 to 4.5.

`COc1cc(-c2cnc3cc(C(C)(O)C(C)C)ccn23)cc(OC(F)F)c1C(=O)NC1CC1` (centres unmarked) [Cpd 135, N-cyclopropyl-2-(difluoromethoxy)-4-[7-(1-hydroxy-1,2-dimethyl-propyl)imidazo[1,2-a]pyridin-3-yl]-6-methoxy-benzamide] was tested, and the IC50 (SIK1) was > 500 nM, the IC50 (SIK2) was > 500 nM and the IC50 (SIK3) was 10 to 100 nM. The EC50 [3] was 100 to 1000 nM.

In the case of `COc1cc(-c2cnc3cc(C4(O)COC4)ccn23)cc(OC(F)F)c1C(=O)NC1CC1` [Cpd 177, N-cyclopropyl-2-(difluoromethoxy)-4-[7-(3-hydroxyoxetan-3-yl)imidazo[1,2-a]pyridin-3-yl]-6-methoxy-benzamide], the IC50 (SIK1) is reported as > 500 nM, the IC50 (SIK2) is reported as > 500 nM and the IC50 (SIK3) is reported as 10 to 100 nM. For the same compound, the EC50 [1] was 100 to 1000 nM and the maximal fold induction [2] was < 1.5.

`COc1cc(-c2cnc3cc(C(C)(O)Cn4ccnc4)ccn23)cc(OC(F)F)c1C(=O)NC1CC1` (centres unmarked) [Cpd 181, N-cyclopropyl-2-(difluoromethoxy)-4-[7-(1-hydroxy-2-imidazol-1-yl-1-methyl-ethyl)imidazo[1,2-a]pyridin-3-yl]-6-methoxy-benzamide] was tested, and the IC50 (SIK1) was > 500 nM, the IC50 (SIK2) was > 500 nM and the IC50 (SIK3) was 10 to 100 nM. The EC50 [1] was 1000 to 5000 nM and the maximal fold induction [2] was < 1.5.

In the case of `COc1cc(-c2cnn3cc(C(C)(C)C#N)ccc23)cc(OC(F)F)c1C(=O)N[C@H]1C[C@H]1F` [Cpd 234, 4-[6-(1-cyano-1-methyl-ethyl)pyrazolo[1,5-a]pyridin-3-yl]-2-(difluoromethoxy)-N-[(1S,2R)-2-fluorocyclopropyl]-6-methoxy-benzamide], the EC50 [1] is reported as 100 to 1000 nM and the maximal fold induction [2] is reported as < 1.5.
